Test [1] has as its system IL-5 mediated survival of human eosinophils. The test is described as follows: IL-5 mediated eosinophil survival assay. The format is cell-based. Here is the method:
The potency of the test compound for IL-5 mediated eosinophil survival was measured in human eosinophils isolated from human whole blood (AllCells). Because IL-5 signals through JAK, this assay provides a measure of JAK cellular potency.
Human eosinophils were isolated from fresh human whole blood (AllCells) of healthy donors. Blood was mixed with 4.5% Dextran (Sigma-Aldrich) in a 0.9% sodium chloride solution (Sigma-Aldrich). Red blood cells were left to sediment for 35 minutes. The leukocyte rich upper layer was removed and layered over Ficoll-Paque (GE Healthcare) and centrifuged at 600 g for 30 minutes. The plasma and mononuclear cell layers were removed before the granulocyte layer was lysed with water to remove any contaminating red blood cells. […] Purity was analyzed using a LSRII flow cytometer (BD Biosciences). […]
After cytokine stimulation, cells were centrifuged at 300 g for 5 min and washed twice with cold DPBS (Life Technologies). To access viability and apoptosis, cells were incubated with Propidium Iodide (Thermo Fisher Scientific) and APC Annexin V (BD Biosciences) and analyzed using a LSRII flow cytometer (BD Biosciences). IC50 values were determined from analysis of the viability curves of percent cell viability vs compound concentration. Data are expressed as pIC50 (negative decadic logarithm IC50 ) values.

The subject of test [2] is IL-6 stimulated STAT3 phosphorylation in CD3+ T cells. The experiment in a line: Inhibition of IL-6 stimulated pSTAT3 in CD3+ T cells. The format is cell-based, human. From the text: A protocol analogous to that of Assay 10 was used to determine the potency of the test compound for inhibition of interleuken-6 (IL-6) stimulated STAT3 phosphorylation. An Alexa Fluor 647 conjugated anti-pSTAT3 antibody (pY705, Clone 4/P, BD Biosciences) was used to detect STAT3 phosphorylation.

The test system of test [3] is IL-2/anti-CD3 stimulated IFNγ in human PBMCs. The test is described as follows: Inhibition of IL-2/anti-CD3 stimulated IFNγ in human PBMCs. The format is cell-based. On the procedure:
The potency of the test compound for inhibition of interleukin-2 (IL-2)/anti-CD3 stimulated interferon gamma (IFNγ) was measured in human peripheral blood mononuclear cells (PBMCs) isolated from human whole blood (Stanford Blood Center). Because IL-2 signals through JAK, this assay provides a measure of JAK cellular potency.
(1) Human peripheral blood mononuclear cells (PBMC) were isolated from human whole blood of healthy donors using a ficoll gradient. Cells were cultured in a 37° C., 5% CO2 humidified incubator in RPMI (Life Technologies) supplemented with 10% Heat Inactivated Fetal Bovine Serum (FBS, Life Technologies), 2 mM Glutamax (Life Technologies), 25 mM HEPES (Life Technologies) and 1X Pen/Strep (Life
Technologies). Cells were seeded at 200,000 cells/well in media (50 μL) and cultured for 1 h. Compounds were serially diluted in DMSO and then diluted another 500-fold (to a 2× final assay concentration) in media. […]
(2) After cytokine stimulation, cells were centrifuged at 500 g for 5 min and supernatants removed and frozen at −80° C. To determine the inhibitory potency of the test compound in response to IL-^2/anti-CD3, supernatant IFNγ concentrations were measured via ELISA (R&D Systems). IC50 values were determined from analysis of the inhibition curves of concentration of IFNγ vs compound concentration. Data are expressed as pIC50 (negative decadic logarithm IC50) values.

`CCc1cc(O)c(F)cc1-c1ccc2c(-c3nc4c([nH]3)CN(C(C)C)[C@H](C(=O)N3CC(N(C)C)C3)C4)n[nH]c2c1` [Example 2, (S)-(3-(dimethylamino)azetidin-1-yl)(2-(6-(2-ethyl-5-fluoro-4-hydroxyphenyl)-1H-indazol-3-yl)-5-isopropyl-4,5,6,7-tetrahydro-3H-imidazo [4,5-c]pyridin-6-yl)methanone]: the “inhibition of IL-5 mediated human eosinophil survival” value in test [1] is given as “potently inhibit”. Also, the “inhibition of IL-6 signaling” value in test [2] was “inhibit IL-6 signaling”. Besides, the “inhibition of anti-CD3 and IL-2 induced release of IFNγ from activated human peripheral blood-isolated T cells” value in test [3] was “inhibit”.

Values taken from US11453668B2, “JAK inhibitors containing a 4-membered heterocyclic amide” (THERAVANCE BIOPHARMA R&D IP, LLC, priority 2017, dated 2022).
